The text below walks through data of the supplement of paper PMC6045584.

± gives the standard deviation of the averaged measurements.

Compound in experiment [1]: CS(=O)(=O)c1ccc(C(=O)Nc2ccc(Cl)c(-c3ccccn3)c2)c(Cl)c1 [VISMODEGIB]
Kind of experiment: surviving fraction relative to DMSO-only wells; higher = less growth inhibition. To be noted: exposure time: 5 days. An outline of the steps: (§1)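 Tumour cell lines were seeded in log phase at 250–500 cells per well into 384-well plates. Starting 24 hours later, inhibitors were present continuously for five days at 0.5, 1, 5, 10, 50, 100, 500 and 1000 nM. Surviving fraction, from CellTiter-Glo luminescence, is normalised to the median of DMSO-only wells. Three screens per line were required, with replicate Pearson r >0.7 and median Z' >0.3 for a line to be kept.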

Compound in experiment [2]: COc1ccc(C2=N[C@@H](c3ccc(Cl)cc3)[C@@H](c3ccc(Cl)cc3)N2C(=O)N2CCNC(=O)C2)c(OC(C)C)c1 [NUTLIN3]
The experiment is described as above. The conditions noted are these: exposure time: 5 days. The method in brief:
as §1

On to G292 BONE, for which the surviving fraction was found to be 0.963 ± 0.032 in experiment [1] (0.5 nM); 0.989 ± 0.018 in experiment [1] (1 nM); 1.01 ± 0.057 in experiment [1] (5 nM); 0.96 ± 0.016 in experiment [1] (10 nM); 0.959 ± 0.049 in experiment [1] (50 nM); 0.975 ± 0.019 in experiment [1] (100 nM). Moreover, the surviving fraction in experiment [1] (500 nM) turned out to be 0.927 ± 0.061; in experiment [1] (1000 nM), 0.932 ± 0.014; in experiment [2] (0.5 nM), 0.982 ± 0.028; in experiment [2] (1 nM), 0.955 ± 0.03; in experiment [2] (5 nM) it was 1.06 ± 0.047; in experiment [2] (10 nM), 1.05 ± 0.032. For the same test system, the surviving fraction is 1.03 ± 0.044 in experiment [2] (50 nM), 0.989 ± 0.026 in experiment [2] (100 nM), 1.01 ± 0.045 in experiment [2] (500 nM) and 0.979 ± 0.054 in experiment [2] (1000 nM).
On to HCC70 BREAST, for which the surviving fraction was 0.977 ± 0.041 in experiment [1] (0.5 nM); 0.964 ± 0.067 in experiment [1] (1 nM); 1.14 ± 0.055 in experiment [1] (5 nM); 1.11 ± 0.012 in experiment [1] (10 nM); 1.11 ± 0.084 in experiment [1] (50 nM); 1.12 ± 0.048 in experiment [1] (100 nM). Also, the surviving fraction turned out to be 1.04 ± 0.037 in experiment [1] (500 nM); 1.1 ± 0.026 in experiment [1] (1000 nM); 1.03 ± 0.094 in experiment [2] (0.5 nM); 1.03 ± 0.043 in experiment [2] (1 nM); 1.02 ± 0.063 in experiment [2] (5 nM); 1.05 ± 0.087 in experiment [2] (10 nM). Besides, the surviving fraction in experiment [2] (50 nM) came to 1.07 ± 0.085; in experiment [2] (100 nM), 1.14 ± 0.055; in experiment [2] (500 nM), 1.04 ± 0.073; in experiment [2] (1000 nM), 1.07 ± 0.084.
Turning to HS57T BREAST, the surviving fraction in experiment [1] (0.5 nM) came to 0.986 ± 0.066; in experiment [1] (1 nM), 0.987 ± 0.04; in experiment [1] (5 nM) it was 1.01 ± 0.062; in experiment [1] (10 nM), 1.04 ± 0.055; in experiment [1] (50 nM), 1.04 ± 0.028; in experiment [1] (100 nM) it was 0.959 ± 0.038. The surviving fraction in experiment [1] (500 nM) was 0.991 ± 0.037; in experiment [1] (1000 nM), 0.978 ± 0.021; in experiment [2] (0.5 nM), 0.965 ± 0.045; in experiment [2] (1 nM), 0.991 ± 0.018; in experiment [2] (5 nM), 1.01 ± 0.045; in experiment [2] (10 nM) it was 1.04 ± 0.046. The surviving fraction in experiment [2] (50 nM) was found to be 1.01 ± 0.023; in experiment [2] (100 nM), 1.12 ± 0.033; in experiment [2] (500 nM), 1.06 ± 0.027; in experiment [2] (1000 nM), 1.04 ± 0.071.
Take HMT3552 BREAST: the surviving fraction was 1.07 in experiment [1] (0.5 nM); 1.02 in experiment [1] (1 nM); 1.05 in experiment [1] (5 nM); 1.06 in experiment [1] (10 nM); 0.804 in experiment [1] (50 nM); 1.16 in experiment [1] (100 nM). For the same test system, the surviving fraction in experiment [1] (500 nM) worked out at 0.925; in experiment [1] (1000 nM), 0.937; in experiment [2] (0.5 nM) it was 0.97; in experiment [2] (1 nM), 0.984; in experiment [2] (5 nM) it was 1; in experiment [2] (10 nM), 1. For the same test system, the surviving fraction was 1.19 in experiment [2] (50 nM), 1.21 in experiment [2] (100 nM), 1.12 in experiment [2] (500 nM) and 1.14 in experiment [2] (1000 nM).
Regarding HS578T BREAST, the surviving fraction was 0.936 ± 0.14 in experiment [1] (0.5 nM); 0.934 ± 0.077 in experiment [1] (1 nM); 1.05 ± 0.062 in experiment [1] (5 nM); 0.964 ± 0.069 in experiment [1] (10 nM); 0.871 ± 0.11 in experiment [1] (50 nM); 0.881 ± 0.051 in experiment [1] (100 nM). For the same test system, the surviving fraction in experiment [1] (500 nM) turned out to be 0.913 ± 0.15; in experiment [1] (1000 nM) it was 0.983 ± 0.15; in experiment [2] (0.5 nM), 1.11 ± 0.067; in experiment [2] (1 nM), 0.926 ± 0.069; in experiment [2] (5 nM), 0.883 ± 0.19; in experiment [2] (10 nM), 0.8973 ± 0.0049. The surviving fraction in experiment [2] (50 nM) worked out at 0.92 ± 0.041; in experiment [2] (100 nM) it was 0.936 ± 0.072; in experiment [2] (500 nM) it was 0.913 ± 0.14; in experiment [2] (1000 nM), 0.921 ± 0.06.
For HCC38 BREAST, the surviving fraction in experiment [1] (0.5 nM) stood at 0.743 ± 0.17; in experiment [1] (1 nM), 0.928 ± 0.2; in experiment [1] (5 nM) it was 0.895 ± 0.31; in experiment [1] (10 nM), 1.12 ± 0.38; in experiment [1] (50 nM) it was 0.668 ± 0.12; in experiment [1] (100 nM), 0.677 ± 0.24. In addition, the surviving fraction in experiment [1] (500 nM) turned out to be 0.743 ± 0.24; in experiment [1] (1000 nM), 0.609 ± 0.11; in experiment [2] (0.5 nM), 1.19 ± 0.29; in experiment [2] (1 nM) it was 1.23 ± 0.12; in experiment [2] (5 nM), 1.35 ± 0.062; in experiment [2] (10 nM), 1.29 ± 0.12. Further, the surviving fraction in experiment [2] (50 nM) worked out at 1.28 ± 0.14; in experiment [2] (100 nM), 1.28 ± 0.11; in experiment [2] (500 nM), 1.22 ± 0.22; in experiment [2] (1000 nM), 1.26 ± 0.25.
HMLE3 BREAST: the surviving fraction was 0.911 ± 0.11 in experiment [1] (0.5 nM); 0.929 ± 0.037 in experiment [1] (1 nM); 1 ± 0.03 in experiment [1] (5 nM); 0.949 ± 0.013 in experiment [1] (10 nM); 0.882 ± 0.096 in experiment [1] (50 nM); 0.969 ± 0.038 in experiment [1] (100 nM). The surviving fraction in experiment [1] (500 nM) was 0.882 ± 0.15; in experiment [1] (1000 nM), 0.893 ± 0.11; in experiment [2] (0.5 nM), 0.967 ± 0.059; in experiment [2] (1 nM) it was 0.985 ± 0.041; in experiment [2] (5 nM), 1.02 ± 0.028; in experiment [2] (10 nM), 0.996 ± 0.085. Further, the surviving fraction stood at 0.982 ± 0.046 in experiment [2] (50 nM), 0.995 ± 0.043 in experiment [2] (100 nM), 0.964 ± 0.025 in experiment [2] (500 nM) and 1.02 ± 0.024 in experiment [2] (1000 nM).
